# Measurements: patent US20260224589A1 (priority 2023, published 2026)
# Where two headings read alike, the source gives them in different places.
# Test system: AsPC-1 cells
# Assay: phospho-ERK HTRF assay in AsPC-1 cells, 4 h treatment
# Type: cell-based
# Settings: Homo sapiens, ASPC1
# [1] = AsPC-1, 4H, Table 1a class column, read-out: pERK IC50 activity range (*)
# [2] = AsPC-1, 4H, Table 1a, read-out: PERK IC50 (AsPC-1, 4H)
# [3] = AsPC-1, 4h, Table 1b, read-out: PERK IC50 (AsPC-1, 4h)
Compound,IC50 [1] [nM],IC50 [2] [nM],IC50 [3] [nM]
"CN(C)C(=O)c1nn2c(c1Cl)CN(c1nc(OC[C@@]34CCCN3C[C@H](F)C4)nc3c1COC(c1cc(N)ccc1C(F)(F)F)C3)CCC2 (stereo in doubt) [230a, 5-((S)-7-(5-amino-2-(trifluoromethyl)phenyl)-2-(((2R,7aS)-2-fluorotetrahydro-1H-pyrrolizin-7a(5H)-yl)methoxy)-7,8-dihydro-5H-pyrano[4,3-d]pyrimidin-4-yl)-3-chloro-N,N-dimethyl-5,6,7,8-tetrahydro-4H-pyrazolo[1,5-a][1,4]diazepine-2-carboxamide]",> 500,> 10000,–
"CN(C)C(=O)c1nn2c(c1Cl)CN(c1nc(OC[C@@]34CCCN3C[C@H](F)C4)nc3c1COC(c1cc(N)ccc1C(F)(F)F)C3)CCC2 (stereo in doubt) [230b, 5-((R)-7-(5-amino-2-(trifluoromethyl)phenyl)-2-(((2R,7aS)-2-fluorotetrahydro-1H-pyrrolizin-7a(5H)-yl)methoxy)-7,8-dihydro-5H-pyrano[4,3-d]pyrimidin-4-yl)-3-chloro-N,N-dimethyl-5,6,7,8-tetrahydro-4H-pyrazolo[1,5-a][1,4]diazepine-2-carboxamide]",31 to 100,13,–
"CS(=O)(=O)c1nn2c(c1Cl)CN(c1nc(OC[C@@]34CCCN3C[C@H](F)C4)nc3c1CO[C@H](c1c(C(F)(F)F)ccc(N)c1F)C3)CCC2 [211a, 3-((S)-4-(3-Chloro-2-(methylsulfonyl)-7,8-dihydro-4H-pyrazolo[1,5-a][1,4]diazepin-5(6H)-yl)-2-(((2R,7aS)-2-fluorotetrahydro-1H-pyrrolizin-7a(5H)-yl)methoxy)-7,8-dihydro-5H-pyrano[4,3-d]pyrimidin-7-yl)-2-fluoro-4-(trifluoromethyl)aniline]",101 to 500,126,–
CS(=O)(=O)c1nn2c(c1Cl)CN(c1nc(OC[C@@]34CCCN3C[C@H](F)C4)nc3c1CO[C@@H](c1c(C(F)(F)F)ccc(N)c1F)C3)CCC2 [211b],> 500,> 10000,–
"CN1CCOc2c(nn3c2CN(c2nc(OC[C@@]45CCCN4C[C@H](F)C5)nc4c2CO[C@H](c2c(C(F)(F)F)ccc(N)c2F)C4)CCC3)C1=O [212a, 11-((S)-7-(3-amino-2-fluoro-6-(trifluoromethyl)phenyl)-2-(((2R,7aS)-2-fluorotetrahydro-1H-pyrrolizin-7a(5H)-yl)methoxy)-7,8-dihydro-5H-pyrano[4,3-d]pyrimidin-4-yl)-4-methyl-3,4,9,10,11,12-hexahydro-8H-[1,4]diazepino[1′,2′:1,5]pyrazolo[3,4-f][1,4]oxazepin-5(2H)-one]",> 500,810,–
CN1CCOc2c(nn3c2CN(c2nc(OC[C@@]45CCCN4C[C@H](F)C5)nc4c2CO[C@@H](c2c(C(F)(F)F)ccc(N)c2F)C4)CCC3)C1=O [212b],> 500,> 10000,–
"CN(C)C(=O)c1nn2c(c1Cl)CN(c1nc(OC[C@@]34CCCN3C[C@H](F)C4)nc3c1CO[C@H](c1c(F)c(N)cc(Cl)c1C(F)(F)F)C3)CCC2 [213a, 5-((S)-7-(3-amino-5-chloro-2-fluoro-6-(trifluoromethyl)phenyl)-2-(((2R,7aS)-2-fluorotetrahydro-1H-pyrrolizin-7a(5H)-yl)methoxy)-7,8-dihydro-5H-pyrano[4,3-d]pyrimidin-4-yl)-3-chloro-N,N-dimethyl-5,6,7,8-tetrahydro-4H-pyrazolo[1,5-a][1,4]diazepine-2-carboxamide]",–,–,< 10
CN(C)C(=O)c1nn2c(c1Cl)CN(c1nc(OC[C@@]34CCCN3C[C@H](F)C4)nc3c1CO[C@@H](c1c(F)c(N)cc(Cl)c1C(F)(F)F)C3)CCC2 [213b],101 to 500,320,–
"CN(C)C(=O)c1nn2c(c1Cl)CN(c1nc(OC[C@@]34CCCN3C[C@H](F)C4)nc3c1CO[C@H](c1c(F)c(N)cc(F)c1C(F)(F)F)C3)CCC2 [214a, 5-((S)-7-(3-amino-2,5-difluoro-6-(trifluoromethyl)phenyl)-2-(((2R,7aS)-2-fluorotetrahydro-1H-pyrrolizin-7a(5H)-yl)methoxy)-7,8-dihydro-5H-pyrano[4,3-d]pyrimidin-4-yl)-3-chloro-N,N-dimethyl-5,6,7,8-tetrahydro-4H-pyrazolo[1,5-a][1,4]diazepine-2-carboxamide]",–,–,< 10
CN(C)C(=O)c1nn2c(c1Cl)CN(c1nc(OC[C@@]34CCCN3C[C@H](F)C4)nc3c1CO[C@@H](c1c(F)c(N)cc(F)c1C(F)(F)F)C3)CCC2 [214b],> 500,1550,–
"Cc1cc(N)c(F)c([C@@H]2Cc3nc(OC[C@@]45CCCN4C[C@H](F)C5)nc(N4CCCn5nc(C(=O)N(C)C)c(Cl)c5C4)c3CO2)c1C(F)(F)F [215a, 5-((S)-7-(3-amino-2-fluoro-5-methyl-6-(trifluoromethyl)phenyl)-2-(((2R,7aS)-2-fluorotetrahydro-1H-pyrrolizin-7a(5H)-yl)methoxy)-7,8-dihydro-5H-pyrano[4,3-d]pyrimidin-4-yl)-3-chloro-N,N-dimethyl-5,6,7,8-tetrahydro-4H-pyrazolo[1,5-a][1,4]diazepine-2-carboxamide]",–,–,< 10
Cc1cc(N)c(F)c([C@H]2Cc3nc(OC[C@@]45CCCN4C[C@H](F)C5)nc(N4CCCn5nc(C(=O)N(C)C)c(Cl)c5C4)c3CO2)c1C(F)(F)F [215b],101 to 500,132,–
"CN(C)C(=O)c1nn2c(c1Cl)CN(c1nc(OC[C@@]34CCCN3C[C@H](F)C4)nc3c1CO[C@H](c1c(C(F)(F)F)cc(F)c(N)c1F)C3)CCC2 [216a, 5-((S)-7-(3-amino-2,4-difluoro-6-(trifluoromethyl)phenyl)-2-(((2R,7aS)-2-fluorotetrahydro-1H-pyrrolizin-7a(5H)-yl)methoxy)-7,8-dihydro-5H-pyrano[4,3-d]pyrimidin-4-yl)-3-chloro-N,N-dimethyl-5,6,7,8-tetrahydro-4H-pyrazolo[1,5-a][1,4]diazepine-2-carboxamide]",31 to 100,49,–
CN(C)C(=O)c1nn2c(c1Cl)CN(c1nc(OC[C@@]34CCCN3C[C@H](F)C4)nc3c1CO[C@@H](c1c(C(F)(F)F)cc(F)c(N)c1F)C3)CCC2 [216b],> 500,> 10000,–
"CN(C)C(=O)c1nn2c(c1Cl)CN(c1nc(OC[C@@]34CCCN3CC(=C(F)F)C4)nc3c1CO[C@H](c1c(C(F)(F)F)ccc(N)c1F)C3)CCC2 [231a, 5-((S)-7-(3-amino-2-fluoro-6-(trifluoromethyl)phenyl)-2-(((S)-2-(difluoromethylene)tetrahydro-1H-pyrrolizin-7a(5H)-yl)methoxy)-7,8-dihydro-5H-pyrano[4,3-d]pyrimidin-4-yl)-3-chloro-N,N-dimethyl-5,6,7,8-tetrahydro-4H-pyrazolo[1,5-a][1,4]diazepine-2-carboxamide]",31 to 100,32,–
"CN(C)C(=O)c1nn2c(c1Cl)CN(c1nc(OC[C@@]34CCCN3CC(=C(F)F)C4)nc3c1CO[C@@H](c1c(C(F)(F)F)ccc(N)c1F)C3)CCC2 [231b, 5-((R)-7-(3-amino-2-fluoro-6-(trifluoromethyl)phenyl)-2-(((S)-2-(difluoromethylene)tetrahydro-1H-pyrrolizin-7a(5H)-yl)methoxy)-7,8-dihydro-5H-pyrano[4,3-d]pyrimidin-4-yl)-3-chloro-N,N-dimethyl-5,6,7,8-tetrahydro-4H-pyrazolo[1,5-a][1,4]diazepine-2-carboxamide]",> 500,> 10000,–
